Test results as given in ChEMBL document CHEMBL1147358, “A New Brominated Indole-3-carbaldehyde from the Marine Bryozoan Zoobotryon verticillatum” (J Nat Prod, 1993).
Activity calls are given as the source filed them. The calls are words filed in the database; no cut-off is given here.

What was measured:
Echinoidea [1] = assay: Inhibition of sea urchin egg division at 20 ug/ml; format: functional
Echinoidea [2] = assay: Inhibition of sea urchin egg division at 5 ug/ml; format: functional
Pluteus = assay: Decrease in mobility of Pluteus larvae at 10 ug/ml; format: functional, organism-based
Echinoidea [3] = assay: Effect on fertilized sea urchin egg division assessed as delaying of metamorphosis at 5 ug/ml; format: functional

| SMILES | Activity (Echinoidea [1]) | Activity (Echinoidea [2]) | Activity (Pluteus) | Activity (Echinoidea [3]) |
| --- | --- | --- | --- | --- |
| Cn1c(Br)c(C[N+](C)(C)[O-])c2cc(Br)c(Br)cc21 | Active | Active | – | – |
| CN(C)Cc1c(Br)n(C)c2cc(Br)c(Br)cc12 | Active | Active | – | – |
| Cn1c(Br)c(C=O)c2cc(Br)c(Br)cc21 | – | – | Active | Active |
